In general, Ki refers to a dissociation constant, usually derived from enzyme kinetics or from competition with a known ligand.

The structures appear in SMILES notation.

The assay can be described thus: Displacement of [125I]TZDM from human beta amyloid fibril 1-42. A general note: Displacement assays read how much labelled ligand stays bound in the presence of the test substance.

For the molecule `COc1cc(/C=C/C(=O)O)ccc1O` [FERULATE], the Ki amounted to 0.77 nM. The figure for `CN(CCN(C)c1nc2ccc(F)cc2s1)c1nc2ccc(F)cc2s1` is 1.37 nM; for `c1ccc2sc(NCCNc3nc4ccccc4s3)nc2c1` it is 0.71 nM. Turning to `Cc1ccc2nc(N(C)CCN(C)c3nc4ccc(C)cc4s3)sc2c1`, the affinity corresponds to a Ki of 0.61 nM. With `CS(=O)(=O)c1ccc2nc(NCCNc3nc4ccc(S(C)(=O)=O)cc4s3)sc2c1` the figure was more than 10 nM. With `CN(CCN(C)c1nc2ccc(Cl)cc2s1)c1nc2ccc(Cl)cc2s1` the figure was 0.64 nM; with `CN(CCN(C)c1nc2ccccc2s1)c1nc2ccccc2s1`, 0.53 nM; with `Nc1ccc2nc(NCCNc3nc4ccc(N)cc4s3)sc2c1`, 0.69 nM. `Cc1ccc2nc(NCCNc3nc4ccc(C)cc4s3)sc2c1` registered a Ki of 0.81 nM.

On to `Fc1ccc2nc(NCCNc3nc4ccc(F)cc4s3)sc2c1`, for which the affinity, expressed as Ki, was 0.75 nM. The Ki values of the last two molecules are within 1.5-fold of each other. With `COc1cc(/C=C/C(=O)O)ccc1N1CCN(c2ccc(/C=C/C(=O)O)cc2OC)CC1`, the inhibition constant Ki worked out at 1.36 nM. With `Clc1ccc2nc(NCCNc3nc4ccc(Cl)cc4s3)sc2c1` the figure was 0.96 nM; with `COc1cc(/C=C/C(=O)O)ccc1N(C)CCN(C)c1ccc(/C=C/C(=O)O)cc1OC`, 0.72 nM. The molecule `COc1cc(/C=C/C(=O)O)ccc1OCCOc1ccc(N(C)C)cc1OC` showed a Ki of 1 nM. The figure for `[11CH3]Nc1ccc(-c2nc3ccc(O)cc3s2)cc1` [PITTSBURGH COMPOUND B] is 0.77 nM; for `COc1cc(/C=C/C(=O)O)ccc1OCCOc1ccc(N(CC(=O)O)CC(=O)O)cc1OC` it is 0.57 nM.

As for `COc1cc(/C=C/C(=O)O)ccc1OCCOc1ccc(/C=C/C(=O)O)cc1OC`, the Ki worked out at 0.6 nM. The Ki values of the last two molecules are within 1.5-fold of each other. The figure for `CN(CCN(C)c1nc2ccc(S(C)(=O)=O)cc2s1)c1nc2ccc(S(C)(=O)=O)cc2s1` is 0.55 nM. With `CN(CCN(C)c1nc2ccc(N)cc2s1)c1nc2ccc(N)cc2s1` the figure was 0.69 nM; with `Brc1ccc2nc(NCCNc3nc4ccc(Br)cc4s3)sc2c1`, 1.11 nM. With `CN(CCN(C)c1nc2ccc(Br)cc2s1)c1nc2ccc(Br)cc2s1` the figure was 0.55 nM.

Values taken from ChEMBL document CHEMBL1140021, “Ferulic acid and benzothiazole dimer derivatives with high binding affinity to beta-amyloid fibrils” (Bioorg Med Chem Lett, 2007).
